Marks after values point to notes of the source that are not given here.
What was measured:
[1] = test system: Puccinia recondita f. sp. tritici; experiment: Test E2: wheat seedlings sprayed, next day inoculated with Puccinia recondita f. sp. tritici (wheat leaf rust), visual disease rating; format: in vivo; conditions: sprayed day before inoculation; for pest or weed control at 200 ppm / pest or weed control at 40 ppm: Puccinia recondita
Source text: (§1) General protocol for preparing test suspensions for Tests A-F: the test compounds were first dissolved in acetone in an amount equal to 3% of the final volume and then suspended at the desired concentration (in ppm) in acetone and purified water (50/50 mix) containing 250 ppm of the surfactant Trem® 014 (polyhydric alcohol esters). The resulting test suspensions were then used in Tests A-F. Spraying a 200 ppm test suspension to the point of run-off on the test plants was the equivalent of a rate of 500 g/ha. An asterisk “*” next to the rating value indicates a 40 ppm test suspension.
The test suspension was sprayed to the point of run-off on wheat seedlings. The following day the seedlings were inoculated with a spore suspension of Puccinia recondita f. sp. tritici (the causal agent of wheat leaf rust) and incubated in a saturated atmosphere at 20° C. for 24 h, and then moved to a growth chamber at 20° C. for 7 days, after which time visual disease ratings were made.
(§2) Results for Tests A-F are given in Table A. In the Table, a rating of 100 indicates 100% disease control and a rating of 0 indicates no disease control (relative to the controls). A dash (-) indicates no test results. All results are for 200 ppm except where followed by “*”, which indicates 40 ppm.

[2] = test system: Erysiphe graminis; experiment: Test F: wheat seedlings sprayed, next day inoculated with Erysiphe graminis (wheat powdery mildew), visual disease rating; format: in vivo; conditions: sprayed day before inoculation; for pest or weed control at 200 ppm / pest or weed control at 40 ppm: Blumeria graminis
Source text: as §1
The test suspension was sprayed to the point of run-off on wheat seedlings. The following day the seedlings were inoculated with a spore dust of Erysiphe graminis, (the causal agent of wheat powdery mildew) and incubated in a growth chamber at 20° C. for 8 days, after which time visual disease ratings were made.
as §2

[3] = test system: Botrytis cinerea; experiment: Test A: tomato seedlings sprayed, next day inoculated with Botrytis cinerea (tomato Botrytis), visual disease rating; format: in vivo; conditions: sprayed day before inoculation; for pest or weed control at 200 ppm / pest or weed control at 40 ppm: Botrytis cinerea
Source text: as §1
The test suspension was sprayed to the point of run-off on tomato seedlings. The following day the seedlings were inoculated with a spore suspension of Botrytis cinerea (the causal agent of tomato Botrytis) and incubated in saturated atmosphere at 20° C. for 48 h, and then moved to a growth chamber at 24° C. for 3 days, after which time visual disease ratings were made.
as §2

[4] = test system: Septoria nodorum; experiment: Test C: wheat seedlings sprayed, next day inoculated with Septoria nodorum (wheat glume blotch), visual disease rating; format: in vivo; conditions: sprayed day before inoculation; for pest or weed control at 200 ppm / pest or weed control at 40 ppm: Parastagonospora nodorum
Source text: as §1
(§3) The test suspension was sprayed to the point of run-off on wheat seedlings. The following day the seedlings were inoculated with a spore suspension of Septoria nodorum (the causal agent of wheat glume blotch) and incubated in a saturated atmosphere at 24° C. for 48 h, and then moved to a growth chamber at 20° C. for 6 days, after which time visual disease ratings were made.
as §2

[5] = test system: Alternaria solani; experiment: Test B: tomato seedlings sprayed, next day inoculated with Alternaria solani (tomato early blight), visual disease rating; format: in vivo; conditions: sprayed day before inoculation; for pest or weed control at 200 ppm / pest or weed control at 40 ppm: Alternaria solani
Source text: as §1
The test suspension was sprayed to the point of run-off on tomato seedlings. The following day the seedlings were inoculated with a spore suspension of Alternaria solani (the causal agent of tomato early blight) and incubated in a saturated atmosphere at 27° C. for 48 h, and then moved to a growth chamber at 20° C. for 5 days, after which time visual disease ratings were made.
as §2

[6] = test system: Septoria tritici; experiment: Test D: wheat seedlings sprayed, next day inoculated with Septoria tritici (wheat leaf blotch), visual disease rating; format: in vivo; conditions: sprayed day before inoculation; for pest or weed control at 200 ppm / pest or weed control at 40 ppm: Zymoseptoria tritici
Source text: as §1
as §3, with “tritici” for “nodorum”, “leaf” for “glume”, “in” for “in a”, “19” for “6”
as §2

[7] = test system: Puccinia recondita f. sp. tritici; experiment: Test E1: wheat seedlings inoculated with Puccinia recondita f. sp. tritici (wheat leaf rust), sprayed afterwards, visual disease rating; format: in vivo; conditions: sprayed after inoculation; for pest or weed control at 200 ppm / pest or weed control at 40 ppm: Puccinia recondita
Source text: as §1
Wheat seedlings were inoculated with a spore suspension of Puccinia recondita f. sp. tritici (the causal agent of wheat leaf rust) and incubated in a saturated atmosphere at 20° C. for 24 h, and then moved to a growth chamber at 20° C. for 2 days. At the end of this time the test suspension was sprayed to the point of run-off on the wheat seedlings, and then the seedlings were moved to a growth chamber at 20° C. for 6 days, after which time visual disease ratings were made.
as §2

Row | SMILES | Test E2 rating (disease control) ([1]; 200 ppm test suspension) [%] | Test F rating (disease control) ([2]; 200 ppm test suspension) [%] | Test A rating (disease control) ([3]; 200 ppm test suspension) [%] | Test C rating (disease control) ([4]; 200 ppm test suspension) [%] | Test B rating (disease control) ([5]; 200 ppm test suspension) [%] | Test D rating (disease control) ([6]; 200 ppm test suspension) [%] | Test E1 rating (disease control) ([7]; 200 ppm test suspension) [%] | other results
1 | COc1cc(OC)cc(-c2c(C)nnc(F)c2-c2c(F)cccc2F)c1 [Compound 33, 4-(2,6-difluorophenyl)-3-fluoro-5-(3,5-dimethoxyphenyl)-6-methylpyridazine] | – | – | – | – | – | – | – | melting point: 150 to 151 °C; pest or weed control at 200 ppm ([1]; 200 ppm test suspension): 100%; pest or weed control at 200 ppm ([2]; 200 ppm test suspension): 99%; pest or weed control at 200 ppm ([3]; 200 ppm test suspension): 99%; pest or weed control at 200 ppm ([4]; 200 ppm test suspension): 99%; pest or weed control at 200 ppm ([5]; 200 ppm test suspension): 100%; pest or weed control at 200 ppm ([6]; 200 ppm test suspension): 100%; pest or weed control at 200 ppm ([7]; 200 ppm test suspension): 60%
2 | COc1cc(OC)cc(-c2c(C)nnc(Cl)c2-c2c(F)cccc2F)c1 [Compound 24, 3-chloro-4-(2,6-difluorophenyl)-5-(3,5-dimethoxyphenyl)-6-methylpyridazine] | – | – | – | – | – | – | – | pest or weed control at 40 ppm ([1]; 40 ppm test suspension (*)): 100%; pest or weed control at 40 ppm ([2]; 40 ppm test suspension (*)): 98%; pest or weed control at 40 ppm ([3]; 40 ppm test suspension (*)): 100%; pest or weed control at 40 ppm ([4]; 40 ppm test suspension (*)): 55%; pest or weed control at 40 ppm ([5]; 40 ppm test suspension (*)): 26%; pest or weed control at 40 ppm ([6]; 40 ppm test suspension (*)): 100%; pest or weed control at 40 ppm ([7]; 40 ppm test suspension (*)): 26%
3 | COc1cc(OC)cc(-c2c(C(C)C)nnc(C)c2-c2c(F)cc(F)cc2F)c1 [Compound 18] | 100 | 100 | 100 | 82 | 99 | 99 | 100 | –
4 | COc1cc(OC)cc(-c2c(CC#N)nnc(C)c2-c2c(F)cccc2F)c1 [Compound 35] | 100 | 99 | 98 | 99 | 99 | 100 | 46 | –
5 | COc1cc(OC)cc(-c2c(C)nnc(F)c2-c2ccc(F)cc2F)c1 [Compound 46] | 98 | 98 | 99 | 84 | 100 | 100 | 0 | –
6 | COc1cc(OC)cc(-c2c(C(C)=O)nnc(C)c2-c2c(F)cc(F)cc2F)c1 [Compound 20, 1-[4-(3,5-dimethoxyphenyl)-6-methyl-5-(2,4,6-trifluorophenyl)-3-pyridazinyl]ethanone] | – | – | – | – | – | – | – | pest or weed control at 40 ppm ([1]; 40 ppm test suspension (*)): 99%; pest or weed control at 40 ppm ([2]; 40 ppm test suspension (*)): 98%; pest or weed control at 40 ppm ([3]; 40 ppm test suspension (*)): 99%; pest or weed control at 40 ppm ([4]; 40 ppm test suspension (*)): 0%; pest or weed control at 40 ppm ([5]; 40 ppm test suspension (*)): 26%; pest or weed control at 40 ppm ([6]; 40 ppm test suspension (*)): 96%; pest or weed control at 40 ppm ([7]; 40 ppm test suspension (*)): 41%
7 | COc1ccc(-c2c(C)nnc(C(C)(C)O)c2-c2cc(OC)cc(OC)c2)cc1 [Compound 19] | – | – | – | – | – | – | – | Test E2 rating (disease control) ([1]; 40 ppm test suspension (*)): 96* %; Test F rating (disease control) ([2]; 40 ppm test suspension (*)): 27* %; Test A rating (disease control) ([3]; 40 ppm test suspension (*)): 84* %; Test C rating (disease control) ([4]; 40 ppm test suspension (*)): 0* %; Test B rating (disease control) ([5]; 40 ppm test suspension (*)): 99* %; Test D rating (disease control) ([6]; 40 ppm test suspension (*)): 97* %; Test E1 rating (disease control) ([7]; 40 ppm test suspension (*)): 0* %
8 | COc1cc(OC)cc(-c2c(CC#N)nnc(Cl)c2-c2c(F)cccc2F)c1 [Compound 27, 6-chloro-5-(2,6-difluorophenyl)-4-(3,5-dimethoxyphenyl)-3-pyridazine-acetonitrile] | – | – | – | – | – | – | – | pest or weed control at 200 ppm ([1]; 200 ppm test suspension): 100%; pest or weed control at 200 ppm ([2]; 200 ppm test suspension): 98%; pest or weed control at 200 ppm ([3]; 200 ppm test suspension): 100%; pest or weed control at 200 ppm ([4]; 200 ppm test suspension): 100%; pest or weed control at 200 ppm ([5]; 200 ppm test suspension): 99%; pest or weed control at 200 ppm ([6]; 200 ppm test suspension): 100%; pest or weed control at 200 ppm ([7]; 200 ppm test suspension): 0%
9 | COc1cc(OC)cc(-c2c(C(C)C)nnc(Cl)c2-c2c(F)cc(F)cc2F)c1 [Compound 16] | 100 | 100 | 99 | 92 | 99 | 99 | 100 | –
10 | COc1cc(OC)c(Cl)c(-c2c(C)nnc(C)c2-c2c(F)cccc2Cl)c1 [Compound 43] | 100 | 100 | 62 | 99 | 82 | 100 | 0 | –
11 | COc1cc(OC)cc(-c2c(C)nnc(Cl)c2-c2ccc(F)cc2F)c1 [Compound 32] | 99 | 89 | 99 | 78 | 99 | 99 | 0 | –
12 | COc1cc(OC)cc(-c2cnnc(Cl)c2-c2c(F)cc(F)cc2F)c1 [Compound 5, 3-chloro-5-(3,5-dimethoxyphenyl)-4-(2,4,6-trifluorophenyl)pyridazine] | – | – | – | – | – | – | – | pest or weed control at 200 ppm ([1]; 200 ppm test suspension): 100%; pest or weed control at 200 ppm ([2]; 200 ppm test suspension): 100%; pest or weed control at 200 ppm ([3]; 200 ppm test suspension): 99%; pest or weed control at 200 ppm ([4]; 200 ppm test suspension): 100%; pest or weed control at 200 ppm ([5]; 200 ppm test suspension): 100%; pest or weed control at 200 ppm ([6]; 200 ppm test suspension): 98%; pest or weed control at 200 ppm ([7]; 200 ppm test suspension): 99%
13 | COc1cc(OC)cc(-c2c(C)nnc(C)c2-c2ccc(F)cc2F)c1 [Compound 40] | 100 | 95 | 100 | 97 | 99 | 100 | 0 | –
14 | COc1cc(OC)c(Cl)c(-c2c(C)nnc(Cl)c2-c2c(F)cccc2Cl)c1Cl [Compound 42] | 89 | 42 | 0 | 0 | 0 | 60 | 0 | –
15 | COc1cc(OC)c(Cl)c(-c2c(C)nnc(F)c2-c2c(F)cccc2F)c1 [Compound 36] | 100 | 100 | 99 | 60 | 100 | 100 | 100 | –
16 | COc1cc(-c2c(C)nnc(Cl)c2-c2ccc(F)cc2F)cc(OC)c1Cl [Compound 45] | 100 | 100 | 100 | 97 | 100 | 100 | 100 | –
17 | COc1cc(OC)cc(-c2c(C)nnc(Cl)c2-c2c(F)cccc2Cl)c1 [Compound 38] | 100 | 100 | 100 | 99 | 99 | 100 | 85 | –
18 | COc1cc(OC)c(Cl)c(-c2c(C)nnc(Cl)c2-c2ccc(F)cc2F)c1 [Compound 44] | 100 | 100 | 66 | 64 | 99 | 100 | 96 | –

Source: patent US20120135995A1, “FUNGICIDAL DIPHENYL-SUBSTITUTED PYRIDAZINES” (E.I. Dupont de Nemours and Company, priority 2009, published 2012)
